Data taken from article PMC2833169, “Anti-malarial activity of a non-piperidine library of next-generation quinoline methanols” (Malaria Journal, 2010).
Values after ≈ are worked out from the molar mass of the structure shown. Like-named read-outs stand apart in the source and are kept apart here.

Tests used:
[1] = metabolic stability in mouse liver microsomes; format: in vitro ADME; settings: for half-life at 1 μM: pH 7.4, mouse liver microsomes, read-out: Half-life in mouse micro; for HL in Microsomes: Figure 3, species of microsomes not given
Experimental: (§1) Interesting compounds were also submitted for drug-drug interaction and metabolic stability assays. Low IC50s against specific cytochrome P450 isoforms may indicate the potential for a harmful drug interaction to occur in vivo with substrates of that isoform. A lack of metabolic stability in vitro may indicate potential metabolic instability in vivo, and, therefore, a shorter half-life. Drug interaction potential was evaluated in vitro using BD Gentest (Franklin Lakes, NJ) CYP450 inhibition kits as recommended by the manufacturer. Metabolic stability assessments were conducted using in vitro liver microsomes. […] The reaction is started with the addition of 1 U/mL glucose-6-phosphate dehydrogenase G6PD. The mixture is incubated on a shaking platform at 37°C, and aliquots are taken and quenched with the addition of an equal volume of cold acetonitrile at 0, 10, 20, 30, and 60 min. Samples are centrifuged at 3700 rpm for […] at 20°C to remove debris. Sample quantification is carried out by LC/MS, and metabolic half-life is calculated by log plots of the total ion chromatograph area remaining.

[2] = target: T1, CYP450 2D6 (Homo sapiens, UniProt P10635); experiment: CYP450 inhibition kit (drug-drug interaction), 2D6; format: biochemical
T1 construct: purchased BD Gentest (Franklin Lakes, NJ)
T1 sequence (P10635 whole entry): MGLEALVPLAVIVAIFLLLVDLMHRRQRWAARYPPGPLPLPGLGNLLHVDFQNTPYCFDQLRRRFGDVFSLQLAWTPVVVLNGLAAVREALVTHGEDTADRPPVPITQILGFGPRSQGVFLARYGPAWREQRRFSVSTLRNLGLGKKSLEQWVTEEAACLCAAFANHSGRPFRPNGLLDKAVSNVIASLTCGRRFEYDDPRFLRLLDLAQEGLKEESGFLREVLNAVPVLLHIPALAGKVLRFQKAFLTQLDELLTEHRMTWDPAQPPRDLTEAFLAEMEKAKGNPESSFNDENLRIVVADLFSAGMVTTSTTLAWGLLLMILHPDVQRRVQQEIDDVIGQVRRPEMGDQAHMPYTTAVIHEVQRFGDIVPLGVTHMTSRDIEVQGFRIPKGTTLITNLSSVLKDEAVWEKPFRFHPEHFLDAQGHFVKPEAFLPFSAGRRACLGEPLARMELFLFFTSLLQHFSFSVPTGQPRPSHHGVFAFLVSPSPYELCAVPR
Experimental: as §1, with “Low” for “Interesting compounds were also submitted for drug-drug interaction and metabolic stability assays. Low”

[3] = in vitro; settings: mouse
Experimental: (§2) General cytotoxicity was assessed by first determining LC50 's against a rodent macrophage (RAW) cell line using the 3-(4,5-dimethylthiazole-2-yl)-2,5-diphenyltetrazolium bromide (MTT) assay as described in one of our earlier studies. This screen was conducted to identify compounds that may require de-selection due to generalized toxicity. […] In vitro neurocytotoxicity was assessed by determining LC50s against primary mouse neurons using the MTT assay as described previously. Inhibition of the A2A and A1 receptors was determined at 200 nM in duplicate by Caliper Biosciences (Hanover, Maryland).

[4] = target: T2, CYP450 3A4 (Homo sapiens, UniProt P08684); experiment: CYP450 inhibition kit (drug-drug interaction), 3A4; format: biochemical
T2 construct: purchased BD Gentest (Franklin Lakes, NJ)
T2 sequence (P08684 whole entry): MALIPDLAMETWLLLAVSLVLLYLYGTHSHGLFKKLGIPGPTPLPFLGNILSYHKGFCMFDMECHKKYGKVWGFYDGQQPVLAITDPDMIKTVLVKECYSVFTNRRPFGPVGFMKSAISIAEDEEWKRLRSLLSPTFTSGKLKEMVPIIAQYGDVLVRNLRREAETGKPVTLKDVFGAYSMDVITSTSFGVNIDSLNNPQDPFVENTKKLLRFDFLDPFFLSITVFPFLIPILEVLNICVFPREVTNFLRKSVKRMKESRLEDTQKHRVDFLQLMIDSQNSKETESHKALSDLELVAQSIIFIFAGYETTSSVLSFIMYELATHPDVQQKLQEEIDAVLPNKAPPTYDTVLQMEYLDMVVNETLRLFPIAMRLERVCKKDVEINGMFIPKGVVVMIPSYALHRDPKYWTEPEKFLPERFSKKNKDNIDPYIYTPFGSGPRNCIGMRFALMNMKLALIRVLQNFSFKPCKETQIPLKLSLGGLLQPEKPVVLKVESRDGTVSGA
Experimental: as §1, with “Low” for “Interesting compounds were also submitted for drug-drug interaction and metabolic stability assays. Low”

[5] = tested on: P. falciparum strain W2; experiment: labeled hypoxanthine susceptibility assay, P. falciparum W2; format: cell-based, Plasmodium falciparum; settings: Plasmodium falciparum
Experimental: (§3) The in vitro activities of quinoline methanols against P. falciparum strains W2, D6, TM91C235, and TM90C2A were evaluated using the traditional labeled hypoxanthine assay of Desjardins et al as modified by Milhous et al. These four P. falciparum strains were selected since they have various levels of resistance to conventional anti-malarials.

[6] = target: T3, CYP450 2C19 (Homo sapiens, UniProt P33261); experiment: CYP450 inhibition kit (drug-drug interaction), 2C19; format: biochemical
T3 construct: purchased BD Gentest (Franklin Lakes, NJ)
T3 sequence (P33261 whole entry): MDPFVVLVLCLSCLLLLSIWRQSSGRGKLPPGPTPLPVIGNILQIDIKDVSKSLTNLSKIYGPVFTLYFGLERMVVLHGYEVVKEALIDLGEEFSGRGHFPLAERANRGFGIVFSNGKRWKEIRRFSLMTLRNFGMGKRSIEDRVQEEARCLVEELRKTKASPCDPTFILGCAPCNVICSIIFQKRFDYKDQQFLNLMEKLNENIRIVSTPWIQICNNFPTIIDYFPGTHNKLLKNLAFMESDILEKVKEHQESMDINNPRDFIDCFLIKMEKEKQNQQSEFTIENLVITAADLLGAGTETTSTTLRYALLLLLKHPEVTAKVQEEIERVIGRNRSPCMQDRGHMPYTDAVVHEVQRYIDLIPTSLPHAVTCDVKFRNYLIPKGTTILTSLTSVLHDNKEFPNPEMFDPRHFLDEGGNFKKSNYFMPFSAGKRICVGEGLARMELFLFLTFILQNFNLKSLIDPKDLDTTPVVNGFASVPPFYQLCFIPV
Experimental: as §1, with “Low” for “Interesting compounds were also submitted for drug-drug interaction and metabolic stability assays. Low”

[7] = target: T4, CYP450 1A2 (Homo sapiens, UniProt P05177); experiment: CYP450 inhibition kit (drug-drug interaction), 1A2; format: biochemical
T4 construct: purchased BD Gentest (Franklin Lakes, NJ)
T4 sequence (P05177 1-516): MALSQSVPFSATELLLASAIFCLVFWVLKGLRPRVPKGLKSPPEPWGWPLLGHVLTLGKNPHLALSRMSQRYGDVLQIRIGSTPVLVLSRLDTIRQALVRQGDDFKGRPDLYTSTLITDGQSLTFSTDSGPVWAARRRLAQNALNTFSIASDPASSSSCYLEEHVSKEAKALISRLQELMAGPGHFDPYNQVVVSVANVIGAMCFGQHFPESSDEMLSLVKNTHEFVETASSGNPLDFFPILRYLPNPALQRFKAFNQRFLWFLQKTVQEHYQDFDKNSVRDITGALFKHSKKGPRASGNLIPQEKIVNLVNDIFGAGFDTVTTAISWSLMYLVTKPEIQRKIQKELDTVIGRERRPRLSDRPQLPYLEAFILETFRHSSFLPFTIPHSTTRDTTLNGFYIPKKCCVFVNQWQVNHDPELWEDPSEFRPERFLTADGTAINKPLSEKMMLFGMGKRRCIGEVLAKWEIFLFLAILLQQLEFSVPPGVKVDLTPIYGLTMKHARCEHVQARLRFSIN
Experimental: as §1, with “Low” for “Interesting compounds were also submitted for drug-drug interaction and metabolic stability assays. Low”

[8] = tested on: rodent macrophage (RAW) cell line; experiment: cells; settings: Mus musculus, Macrophage, read-out: Macrophage IC50
Experimental: as §2

[9] = tested on: P. falciparum strain D6; experiment: labeled hypoxanthine susceptibility assay, P. falciparum D6; format: cell-based, Plasmodium falciparum; settings: Plasmodium falciparum
Experimental: as §3

[10] = target: T5, CYP450 2C9 (Homo sapiens, UniProt P11712); experiment: CYP450 inhibition kit (drug-drug interaction), 2C9; format: biochemical
T5 construct: purchased BD Gentest (Franklin Lakes, NJ)
T5 sequence (P11712 whole entry): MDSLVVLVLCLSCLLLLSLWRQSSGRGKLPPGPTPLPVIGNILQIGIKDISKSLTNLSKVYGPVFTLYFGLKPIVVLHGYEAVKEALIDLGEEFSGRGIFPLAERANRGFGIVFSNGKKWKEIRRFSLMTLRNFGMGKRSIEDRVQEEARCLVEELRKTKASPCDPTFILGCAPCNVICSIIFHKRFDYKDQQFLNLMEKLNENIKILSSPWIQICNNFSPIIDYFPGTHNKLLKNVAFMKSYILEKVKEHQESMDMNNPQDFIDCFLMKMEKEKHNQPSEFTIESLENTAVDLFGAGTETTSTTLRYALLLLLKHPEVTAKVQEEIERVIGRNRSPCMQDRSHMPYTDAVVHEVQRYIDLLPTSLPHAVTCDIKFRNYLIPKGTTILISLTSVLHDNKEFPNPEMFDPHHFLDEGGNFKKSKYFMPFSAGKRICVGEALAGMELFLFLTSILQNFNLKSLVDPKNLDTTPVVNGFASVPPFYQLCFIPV
Experimental: as §1, with “Low” for “Interesting compounds were also submitted for drug-drug interaction and metabolic stability assays. Low”

[11] = tested on: P. falciparum strain TM90C2A; experiment: labeled hypoxanthine susceptibility assay, P. falciparum TM90C2A; format: cell-based, Plasmodium falciparum; settings: for IC90: Plasmodium falciparum, TM90C2A; for CSI (C2A/W2): ratio of IC90 C2A to IC90 W2
Experimental: as §3

[12] = tested on: P. falciparum strain TM91C235; experiment: labeled hypoxanthine susceptibility assay, P. falciparum TM91C235; format: cell-based, Plasmodium falciparum; settings: Plasmodium falciparum
Experimental: as §3

[13] = tested on: MDR1-transfected MDCK cell monolayers; experiment: in vitro; settings: dog, MDCK-MDR1, 2 h, 5 μM, pH 7.4
Experimental: (§4) For this reason, the apparent permeability of selected compounds across MDR1-transfected MDCK cell monolayers was determined. This assay is an in vitro surrogate of the blood-brain barrier.
(§5) Permeability was determined by Absorption Systems (Exton, PA). MDR1-MDCK cell monolayers were grown to confluence on collagen-coated, microporous, polycarbonate membranes in 12-well Costar Transwell plates. […] The permeability assay buffer was Hanks Balanced Salt Solution containing 10 mM HEPES and 15 mM glucose at a pH of 7.4. A known p-glycoprotein inhibitor cyclosporin A (CSA) was also added to the assay buffer at 10 μM. Bovine serum albumin (1%) was added to the receiver well. The dosing solution concentrations of the test compounds were 5.0 μM in the assay buffer. All cell monolayers were first pre-incubated for 30 minutes with assay buffer. After 30 minutes, the buffer was removed, replaced with fresh buffer, and time was recorded as 0. […] Cell monolayers were dosed on the apical side (A-to-B) or basolateral side (B-to-A) and incubated at 37°C with 5% CO2 in a humidified incubator. After 2 hours, aliquots were taken from the receiver chambers. Samples were taken from the donor chamber at 0 and 2 hours. Each determination was performed in duplicate. The lucifer yellow flux was also measured for each monolayer to ensure no damage was inflicted to the cell monolayers during the flux period. All samples were assayed by LC/MS/MS using electrospray ionization.
(§6) Apparent permeability in the apical (A-B direction), PappA-B, and percent recovery are reported. Apparent permeability is a measure of the rate of transport across the cell monolayer. Percent recovery refers to the amount of compound recoverable at the end of the assay. Low recovery may indicate non-specific binding to assay plates, instability or accumulation in the cell pellet.
(§7) The apparent permeability, Papp, and percent recovery were calculated as follows:
(§8) Papp = (dCr/dt) × Vr/(A × C0) (1)
(§9) Percent Recovery = 100 × ((Vr × Cr^final) + (Vd × Cd^final))/(Vd × […]) (2)

[14] = in vitro; settings: dog, MDCK-MDR1, pH 7.4
Experimental: as §4, §5, §6, §7, §8, §9

[15] = in vitro; settings: mouse; remark: listed apart in the source
Experimental: as §2

[16] = D6, read-out: IC90 Pf D6, P. falciparum D6, mefloquine: historical mean +/- SD (n)
[17] = D6, read-out: PF D6 IC90, P. falciparum D6

CCC(CC)CNCC(O)c1cc(C(F)(F)F)nc2c(C(F)(F)F)cccc12 (stereo not shown) [WR308388]
half-life at 1 μM [1]: 16 min | IC50 [2]: 0.8 µM | CC50 [3]: 56 µM | IC50 [4]: 33 µM | IC90 ([5]; W2, read-out: IC90 Pf W2): 0.0011 mg/L (≈ 0.00269 µM) | IC90 ([5]; W2, read-out: PF W2 IC90): 0.00112 mg/L (≈ 0.00274 µM) | IC50 [6]: 3.4 µM | IC50 [7]: 1.2 µM | IC50 [8]: 15.7 µM | IC90 [9, 16]: 0.0067 mg/L (≈ 0.0164 µM) | IC90 [9, 17]: 0.00671 mg/L (≈ 0.0164 µM) | IC50 [10]: 13 µM | IC90 ([11]; read-out: IC90 Pf C2A): 0.01 mg/L | IC90 ([11]; read-out: PF C2A IC90): 0.0102 mg/L | IC90 ([11]; read-out: IC90 PfC2A): 23 nM | CSI (C2A/W2) [11]: 9.1 | IC90 ([12]; read-out: IC90 Pf C235): 0.011 mg/L (≈ 0.0269 µM) | IC90 ([12]; read-out: PF C235 IC90): 0.0109 mg/L (≈ 0.0267 µM)

CC(C)CC(C)NCC(O)c1cc(C(F)(F)F)nc2c(C(F)(F)F)cccc12 (stereo not shown) [WR308413]
half-life at 1 μM [1]: 19 min | IC50 [2]: 1 µM | CC50 [3]: > 120 µM | IC50 [4]: > 40 µM | IC90 ([5]; W2, read-out: IC90 Pf W2): 0.0011 mg/L (≈ 0.00269 µM) | IC90 ([5]; W2, read-out: PF W2 IC90): 0.001 mg/L (≈ 0.00245 µM) | IC50 [6]: 5.8 µM | IC50 [7]: 26 µM | IC50 [8]: 8.5 µM | IC90 [9, 16]: 0.012 mg/L (≈ 0.0294 µM) | IC90 [9, 17]: 0.0116 mg/L (≈ 0.0284 µM) | IC50 [10]: 19 µM | IC90 ([11]; read-out: IC90 Pf C2A): 0.0075 mg/L | IC90 ([11]; read-out: PF C2A IC90): 0.00748 mg/L | IC90 ([11]; read-out: Pf C2A IC90 nM values calculated using MW in Column C): 18 nM | IC90 ([11]; read-out: IC90 PfC2A): 171 nM | CSI (C2A/W2) [11]: 7.5 | IC90 ([12]; read-out: IC90 Pf C235): 0.015 mg/L (≈ 0.0367 µM) | IC90 ([12]; read-out: PF C235 IC90): 0.0147 mg/L (≈ 0.036 µM)

CC1C(NCC(O)c2cc(C(F)(F)F)nc3c(C(F)(F)F)cccc23)CC2CC1C2(C)C (stereo not shown) [WR308446]
half-life at 1 μM [1]: 13 min | IC50 [2]: 9.1 µM | CC50 [3]: 48 µM | IC50 [4]: > 40 µM | IC90 ([5]; W2, read-out: IC90 Pf W2): < 0.001 mg/L | IC90 ([5]; W2, read-out: PF W2 IC90): < 0.00048 mg/L | IC50 [6]: 14 µM | IC50 [7]: > 40 µM | IC50 [8]: 8.85 µM | IC90 [9, 16]: 0.014 mg/L (≈ 0.0304 µM) | IC90 [9, 17]: 0.0143 mg/L (≈ 0.0311 µM) | IC50 [10]: 16 µM | IC90 ([11]; read-out: IC90 Pf C2A): 0.016 mg/L | IC90 ([11]; read-out: PF C2A IC90): 0.0155 mg/L | IC90 ([11]; read-out: IC90 PfC2A): 34 nM | IC90 ([12]; read-out: IC90 Pf C235): 0.019 mg/L (≈ 0.0413 µM) | IC90 ([12]; read-out: PF C235 IC90): 0.0189 mg/L (≈ 0.041 µM)

OC(CNCC1CCCN1)c1cc(C(F)(F)F)nc2c(C(F)(F)F)cccc12 (stereo not shown) [WR308621]
HL in Microsomes [1]: > 60 min | % recovery (MDCK-MDR1 permeability assay) [13]: 28% | Papp A→B at 2 h, 5 μM [14]: < 33 nm/s | IC90 ([5]; W2, read-out: IC90 Pf W2): 0.046 mg/L (≈ 0.113 µM) | CC50 [15]: 20.3 mg/L (≈ 49.8 µM) | IC90 [9, 16]: 0.092 mg/L (≈ 0.226 µM) | IC90 ([11]; read-out: IC90 Pf C2A): 0.198 mg/L | IC90 ([12]; read-out: IC90 Pf C235): 0.1 mg/L (≈ 0.245 µM)

CCCCNCCNCC(O)c1cc(C(F)(F)F)nc2c(C(F)(F)F)cccc12 (stereo not shown) [WR318746]
HL in Microsomes [1]: > 60 min | % recovery (MDCK-MDR1 permeability assay) [13]: 42% | Papp A→B at 2 h, 5 μM [14]: 59 nm/s | IC90 ([5]; W2, read-out: IC90 Pf W2): 0.09 mg/L (≈ 0.213 µM) | CC50 [15]: 28.5 mg/L (≈ 67.4 µM) | IC90 [9, 16]: 0.155 mg/L (≈ 0.366 µM) | IC90 ([11]; read-out: IC90 Pf C2A): 0.319 mg/L | IC90 ([12]; read-out: IC90 Pf C235): 0.283 mg/L (≈ 0.668 µM)
